Assay results: patent US6204282A, “Benzimidazole compounds that are vitronectin receptor antagonists” (Schering Corporation, priority 1999, dated 2001)
pIC50: −log10 of the molar value.

target: αllbβ3 receptor (Homo sapiens, UniProt P05106+P08514); assay: similar competitive assay with purified αllbβ3 receptor and 125I-echistatin (specificity index versus αvβ3); type: binding; conditions: IC50 αllbβ3 / IC50 αvβ3
Excerpt: The specificity index, which is a measure of the relative binding affinity for αvβ3 versus αllbβ3, may be determined by dividing the IC50 value for αllbβ3by the IC50 value for αvβ3.

Compared with COc1ccc(NC(=S)N(Cc2ccc(C(=O)NC[C@H](NC(=O)OCc3ccccc3)C(=O)O)cc2)Cc2nc3ccccc3[nH]2)cc1 [Example 5-46], CCOC(=O)c1ccc(NC(=O)N(Cc2ccc(C(=O)NC[C@H](NC(=O)OCc3ccccc3)C(=O)O)cc2)Cc2nc3ccccc3[nH]2)cc1 [Example 5-47] is higher in “SPECIFICITY αIIb β3/αvβ3 (specificity index)” value: 1065 for the first, 1252 for the second.

First: CC(=O)N(CCc1nc2ccccc2[nH]1)Cc1ccc(C(=O)NCC(NC(=O)OCc2ccccc2)C(=O)O)cc1 (stereo not drawn) [Example 5-71]
Second: CCOC(=O)N(Cc1ccc(C(=O)NC[C@H](NC(=O)OCc2ccccc2)C(=O)O)cc1)Cc1nc2ccccc2[nH]1 [Example 5-20]
The “SPECIFICITY αIIb β3/αvβ3 (specificity index)” value of the first is lower: 0.3 for the first, 15 for the second.

First: Cn1c(CN(Cc2ccc(C(=O)NC[C@H](NC(=O)OCc3ccccc3)C(=O)O)cc2)C(=O)NC2CCCCC2)nc2ccccc21 [Example 5-92]
Second: O=C(N[C@@H](CNC(=O)c1ccc(CN(Cc2nc3ccccc3[nH]2)C(=S)NC2CCCCC2)cc1)C(=O)O)OCc1ccccc1 [Example 5-55]
The “SPECIFICITY αIIb β3/αvβ3 (specificity index)” value of the first is lower: 174 for the first, 620 for the second.

First: COCC(=O)N(Cc1ccc(C(=O)NC[C@H](NC(=O)OCc2ccccc2)C(=O)O)cc1)C(C)c1nc2ccccc2[nH]1 (stereo partly drawn) [Example 5-77]
Second: CC(c1nc2ccccc2[nH]1)N(Cc1ccc(C(=O)NC[C@H](NC(=O)OCc2ccccc2)C(=O)O)cc1)C(=O)CCC1CCCC1 (stereo partly drawn) [Example 5-79]
The “SPECIFICITY αIIb β3/αvβ3 (specificity index)” value of the first is lower: 12.4 for the first, 19.0 for the second.

Going from O=C(N[C@H](CNC(=O)c1ccc(CN(Cc2nc3ccccc3[nH]2)C(=O)CCc2ccccc2)cc1)C(=O)O)OCc1ccccc1 [Example 5-59] to O=C(NC(CNC(=O)c1ccc(CN(CCc2nc3ccccc3[nH]2)C(=O)CCc2ccccc2)cc1)C(=O)O)OCc1ccccc1 (stereo not drawn) [Example 5-73], the “SPECIFICITY αIIb β3/αvβ3 (specificity index)” value falls from 65 to 0.7.

Compared with O=C(NC(CNC(=O)c1ccc(CNCCc2nc3ccccc3[nH]2)cc1)C(=O)O)OCc1ccccc1 (stereo not drawn) [Example 5-70], O=C(N[C@H](CNC(=O)c1ccc(CNCc2nc3ccccc3[nH]2)cc1)C(=O)O)OCc1ccccc1 [Example 5-57] is higher in “SPECIFICITY αIIb β3/αvβ3 (specificity index)” value: 0.2 for the first, 1.43 for the second.

First: O=C(N[C@@H](CNC(=O)c1ccc(CN(Cc2nc3ccccc3[nH]2)C(=O)Nc2ccccc2)cc1)C(=O)O)OCc1ccccc1 [Example 5-27]
Second: O=C(N[C@@H](CNC(=O)c1ccc(CN(Cc2nc3ccccc3[nH]2)C(=O)NCc2ccccc2)cc1)C(=O)O)OCc1ccccc1 [Example 5-29]
The “SPECIFICITY αIIb β3/αvβ3 (specificity index)” value of the first is higher: 481 for the first, 144 for the second.

First: O=C(N[C@@H](CNC(=O)c1ccc(CN(Cc2nc3cc(Cl)ccc3[nH]2)C(=O)NC2CCCCC2)cc1)C(=O)O)OCc1ccccc1 [Example 5-94]
Second: O=C(N[C@@H](CNC(=O)c1ccc(CN(Cc2nc3ccccc3[nH]2)C(=O)C2CCCCC2)cc1)C(=O)O)OCc1ccccc1 [Example 5-15]
The “SPECIFICITY αIIb β3/αvβ3 (specificity index)” value of the first is higher: 399 for the first, 95 for the second.

Going from O=C(N[C@@H](CNC(=O)c1ccc(CN(Cc2nc3ccccc3[nH]2)C(=O)Nc2cccc3ccccc23)cc1)C(=O)O)OCc1ccccc1 [Example 5-37] to O=C(N[C@@H](CNC(=O)c1ccc(CN(Cc2nc3ccccc3[nH]2)C(=O)COc2ccccc2)cc1)C(=O)O)OCc1ccccc1 [Example 5-19], the “SPECIFICITY αIIb β3/αvβ3 (specificity index)” value falls from 203 to 34.

First: O=C(N[C@@H](CNC(=O)c1ccc(CN(Cc2nc3ccccc3[nH]2)C(=S)NCCc2ccccc2)cc1)C(=O)O)OCc1ccccc1 [Example 5-31]
Second: CCOC(=O)[C@H](Cc1ccccc1)NC(=O)N(Cc1ccc(C(=O)NC[C@H](NC(=O)OCc2ccccc2)C(=O)O)cc1)Cc1nc2ccccc2[nH]1 [Example 5-52]
The “SPECIFICITY αIIb β3/αvβ3 (specificity index)” value of the first is lower: 80 for the first, 448 for the second.

Compared with CCOCC(=O)N(Cc1ccc(C(=O)NC[C@H](NC(=O)OCc2ccccc2)C(=O)O)cc1)Cc1nc2ccccc2[nH]1 [Example 5-26], CN(C)CC(=O)N(Cc1ccc(C(=O)NC[C@H](NC(=O)OCc2ccccc2)C(=O)O)cc1)Cc1nc2ccccc2[nH]1 [Example 5-24] is lower in “SPECIFICITY αIIb β3/αvβ3 (specificity index)” value: 91 for the first, 14 for the second.

First: O=C(O)CNC(=O)N(Cc1ccc(C(=O)NC[C@H](NC(=O)OCc2ccccc2)C(=O)O)cc1)Cc1nc2ccccc2[nH]1 [Example 5-96, N^3-[4-[(Benzimidazol-2-yl)methyl][[(carboxymethyl)amino]carbonyl]aminomethylbenzoyl]-N^2 -Cbz-L-2,3-diaminopropionic acid]
Second: CCNC(=O)N(Cc1ccc(C(=O)NC[C@H](NC(=O)OCc2ccccc2)C(=O)O)cc1)Cc1nc2ccccc2[nH]1 [Example 5-43]
The “SPECIFICITY αIIb β3/αvβ3 (specificity index)” value of the first is lower: 528 for the first, 585 for the second.

Compared with CC(=O)OC(C(=O)N(Cc1ccc(C(=O)NC[C@H](NC(=O)OCc2ccccc2)C(=O)O)cc1)Cc1nc2ccccc2[nH]1)c1ccccc1 (stereo partly drawn) [Example 5-18], CC(C)C(=O)N(Cc1ccc(C(=O)NC[C@H](NC(=O)OCc2ccccc2)C(=O)O)cc1)Cc1nc2ccccc2[nH]1 [Example 5-13] is lower in “SPECIFICITY αIIb β3/αvβ3 (specificity index)” value: 82 for the first, 38 for the second.

Compared with CCCCOC(=O)N[C@@H](CNC(=O)c1ccc(CN(Cc2nc3ccccc3[nH]2)C(=O)Nc2ccccc2)cc1)C(=O)O [Example 5-83], CCCNC(=O)N(Cc1ccc(C(=O)NC[C@H](NC(=O)OCc2ccccc2)C(=O)O)cc1)Cc1nc2ccccc2[nH]1 [Example 5-39] is lower in “SPECIFICITY αIIb β3/αvβ3 (specificity index)” value: 1689 for the first, 223 for the second.

Compared with CCCCOC(=O)N[C@@H](CNC(=O)c1ccc(CN(Cc2nc3ccccc3[nH]2)C(=O)N[C@@H](CCSC)C(=O)OCC)cc1)C(=O)O [Example 5-87], CCCCOC(=O)N[C@@H](CNC(=O)c1ccc(CN(Cc2nc3ccccc3[nH]2)C(=O)NC(C)C)cc1)C(=O)O [Example 5-84] is lower in “SPECIFICITY αIIb β3/αvβ3 (specificity index)” value: 1569 for the first, 712 for the second.

Going from CCOC(=O)[C@H](C)NC(=O)N(Cc1ccc(C(=O)NC[C@H](NC(=O)OCc2ccccc2)C(=O)O)cc1)Cc1nc2ccccc2[nH]1 [Example 5-50] to CCOC(=O)CNC(=O)N(Cc1ccc(C(=O)NC[C@H](NC(=O)OCc2ccccc2)C(=O)O)cc1)Cc1nc2ccccc2[nH]1 [Example 5-45, N^3-[4-[(benzimidazol-2-yl)methyl][[(ethoxycarbonylmethyl)amino]-carbonyl]aminomethylbenzoyl]-N^2 -Cbz-L-2,3-diaminopropionic acid], the “SPECIFICITY αIIb β3/αvβ3 (specificity index)” value rises from 805 to 1333.

Compared with CCCCOC(=O)N[C@@H](CNC(=O)c1ccc(CN(Cc2nc3ccccc3[nH]2)C(=O)NCC(=O)O)cc1)C(=O)O [Example 5-97, N^3-[4-[(Benzimidazol-2-yl)methyl][[(carboxymethyl)amino]carbonyl]aminomethylbenzoyl]-N^2-(n-butoxycarbonyl)-L-2,3-diaminopropionic acid], CCCCOC(=O)N[C@@H](CNC(=O)c1ccc(CN(Cc2nc3ccccc3[nH]2)C(=O)NC(C)(C)C)cc1)C(=O)O [Example 5-85] is lower in “SPECIFICITY αIIb β3/αvβ3 (specificity index)” value: 2600 for the first, 1223 for the second.

First: CC(=O)N(Cc1ccc(C(=O)NC[C@H](NC(=O)OC(C)(C)C)C(=O)O)cc1)Cc1nc2ccccc2[nH]1 [Example 5-61]
Second: CC(C)(C)OC(=O)N[C@@H](CNC(=O)c1ccc(CN(Cc2nc3ccccc3[nH]2)C(=O)CCc2ccccc2)cc1)C(=O)O [Example 5-63]
The “SPECIFICITY αIIb β3/αvβ3 (specificity index)” value of the first is higher: 324 for the first, 293 for the second.

Compared with O=C(NC(CNC(=O)c1ccc(CN(CCc2nc3ccccc3[nH]2)C(=O)CCC2CCCC2)cc1)C(=O)O)OCc1ccccc1 (stereo not drawn) [Example 5-74], CCOC(=O)CCC(=O)N(Cc1ccc(C(=O)NC[C@H](NC(=O)OCc2ccccc2)C(=O)O)cc1)Cc1nc2ccccc2[nH]1 [Example 5-17] is higher in “SPECIFICITY αIIb β3/αvβ3 (specificity index)” value: 0.6 for the first, 76 for the second.

Going from CC(NCc1ccc(C(=O)NC[C@H](NC(=O)OCc2ccccc2)C(=O)O)cc1)c1nc2ccccc2[nH]1 (stereo partly drawn) [Example 5-75] to CCOC(=O)CCNC(=O)N(Cc1ccc(C(=O)NC[C@H](NC(=O)OCc2ccccc2)C(=O)O)cc1)Cc1nc2ccccc2[nH]1 [Example 5-54], the “SPECIFICITY αIIb β3/αvβ3 (specificity index)” value rises from 10.2 to 413.

Compared with CC(=O)N(Cc1ccc(C(=O)NC(CC(=O)O)c2ccccc2)cc1)Cc1nc2ccccc2[nH]1 (stereo not drawn) [Example 5-66], COCC(=O)N(Cc1ccc(C(=O)NC(CC(=O)O)c2ccccc2)cc1)Cc1nc2ccccc2[nH]1 (stereo not drawn) [Example 5-67] is higher in “SPECIFICITY αIIb β3/αvβ3 (specificity index)” value: 0.4 for the first, 0.5 for the second.

Going from O=C(N[C@@H](CNC(=O)c1ccc(CN(Cc2nc3ccccc3[nH]2)C(=O)NC23CC4CC(CC(C4)C2)C3)cc1)C(=O)O)OCc1ccccc1 [Example 5-40] to O=C(O)CC(NC(=O)c1ccc(CN(Cc2nc3ccccc3[nH]2)C(=O)CCC2CCCC2)cc1)c1ccccc1 (stereo not drawn) [Example 5-69], the “SPECIFICITY αIIb β3/αvβ3 (specificity index)” value falls from 288 to 0.4.

In the case of O=C(O)CC(NC(=O)c1ccc(CN(Cc2nc3ccccc3[nH]2)C(=O)CCc2ccccc2)cc1)c1ccccc1 (stereo not drawn) [Example 5-68], the “SPECIFICITY αIIb β3/αvβ3 (specificity index)” value was 0.4.

target: T1, αvβ3 receptor (Homo sapiens, UniProt P05106+P06756); assay: competition radioligand binding assay, 125I-echistatin to purified αvβ3 receptor; conditions: inhibition of specific binding of 125I-echistatin (0.05 nM), 3 hour incubation at room temperature
T1 construct: αvβ3 receptor (purified from human placenta); from tissue; host or cells: human placenta

Compared with O=C(N[C@@H](CNC(=O)c1ccc(CN(Cc2nc3ccccc3[nH]2)C(=O)c2ccc3c(c2)OCO3)cc1)C(=O)O)OCc1ccccc1 [Example 5-4], O=C(N[C@@H](CNC(=O)c1ccc(CN(Cc2nc3ccccc3[nH]2)C(=O)c2ccc(Cl)cc2)cc1)C(=O)O)OCc1ccccc1 [Example 5-2] is 0.35 log units lower in pIC50: 8.54 for the first, 8.19 for the second. The first is the more potent here.

First: COCC(=O)N(Cc1cccc(C(=O)NC[C@H](NC(=O)OCc2ccccc2)C(=O)O)c1)Cc1nc2ccccc2[nH]1 [Example 5-10]
Second: CC(=O)N(Cc1ccc(C(=O)NC[C@H](NC(=O)OCc2ccccc2)C(=O)O)cc1)Cc1nc2ccccc2[nH]1 [Example 5-3]
The pIC50 of the first is 2.42 log units lower: ~6.30 for the first, 8.72 for the second.

Compared with O=C(N[C@@H](CNC(=O)c1cccc(CNCc2nc3ccccc3[nH]2)c1)C(=O)O)OCc1ccccc1 [Example 5-6], O=C(N[C@@H](CNC(=O)c1ccc(CNCc2nc3ccccc3[nH]2)cc1)C(=O)O)OCc1ccccc1 [Example 5-1] is 1.97 log units higher in pIC50: ~6.30 for the first, 8.27 for the second.
